Results on three substances are retold here after US7053177B1, “Random peptides that bind to gastro-intestinal tract (GIT) transport receptors and related methods” (Cytogen Corporation, priority 1997, dated 2006).

For data set [1], the system named is P100 membrane fraction of Caco-2 cells. The data set can be described thus: GST-PAX2 peptides: relative binding to P100 fractions (ratio to GST-HAX42). The settings on record: GST-peptide 20 μg/ml; binding to plastic subtracted; GST-HAX42 = 1.00. The protocol:
The peptides and proteins were analyzed by a dansylated peptide ELISA method in which 96 well plates were coated overnight at 4° C. with 100 μl/well coating protein (normally 100 μg/ml P100 membrane fraction) in 0.05M carbonate buffer pH9.6. Nonspecific binding was blocked using 200 μl/well, 2% Marvel/PBS for 2 hours at 37° C. prior to incubation with dansylated peptides. The plates were washed three times with PBS/0.05% Tween 20 and after each subsequent incubation step. […] A buffer blank control was included to ensure that background binding to plastic was not due to the antibodies used in the assay system. […] The plates were then incubated with an anti-mouse λ-HRP conjugated antibody (Southern Biotech 1060-05) at a 1:10,000 dilution in blocking solution, 100 μl/well for 1 hour at room temperature. Plates were developed using 75 μl/well Bionostics TMB substrate and incubated for approximately 10 minutes. The developing reaction was stopped using Bionostics Red Stop solution (25 μl/well), and the optical density of the plates was read at 650 nm.
After subtraction of the GST-peptide binding to plastic from P100 binding values, the binding of GST-PAX2 peptides were represented as a ratio of GST-HAX42 binding to P100, which was given the arbitrary value of 1.00. The following ratios were determined from binding to P100 of GST-peptides at a peptide concentration of 20 μg/ml. […]

Data set [2] concerns fixed Caco-2 cells. The data set is described as follows: Effect of thrombin cleavage on binding of GST-peptide fusions to fixed Caco-2 cells. The settings on record: in words. The protocol: Binding of intact and thrombin-cleaved GST-peptide fusions to fixed Caco-2 cells was compared.
Thirty micrograms of each GST-peptide was treated with bovine thrombin (1 μ/ml; 0.4 NIH units; Sigma CN.T9681) for 18h at room temperature in 20 mM Tris-HCl pH8.0, 150 mM NaCl, 2.5 mM CaCl2. Controls were similarly treated without addition of thrombin. Ten micrograms of each GST-peptide fusion was removed for PAGE analysis, and 10 μg of fusions were added in duplicate to the fixed Caco-2 cells before 5-fold serial dilutions (1% BPT diluent). The fusions were allowed to bind for 1h at room temperature. Following 6 washes with 1% BPT, binding was assayed by ELISA.

The test system of data set [3] is P100 membrane fraction of Caco-2 cells. The data set can be described thus: Dansylated peptide ELISA: relative binding of PAX2 and HAX42 peptides to P100 fractions (ratio to ZElan021). Particulars: HAX42 peptides, ratio to ZElan021 = 1.00. In short, it runs like this: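 Plates coated overnight at 4 °C with Caco-2 P100 membrane fraction (normally 100 μg/ml, pH 9.6) and blocked with 2% Marvel/PBS were incubated with dansylated peptides. Binding was detected with anti-mouse λ-HRP and TMB, read at 650 nm, and expressed relative to ZElan021.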

For data set [4] the test system is unchanged. The data set is described as follows: Binding of dansylated peptides to P100 fractions (peptide/particle correlation). Particulars: compared with scrambled PAX2 control. How it is done: Caco-2 cell membrane (P100) and cytosolic (S100) fractions were prepared using a modification of the method described in Kinsella, B. T., O'Mahony, D. J. and G. A. FitzGerald, 1994, J. Biol. Chem. 269(47): 29914–29919. Confluent Caco-2 cell monolayers (grown in 75 cm^2 flasks for up to 1 week at 37° C. and 5% CO2) were washed twice in Dulbecco's PBS (DPBS) and the cells were harvested by centrifugation at 1000 rpm after treatment with 10 mM EDTA-DPBS. The cells were washed 3 times in DPBS and the final cell pellet was resuspended in 3 volumes of ice cold HED buffer (20 mM HEPES (pH 7.67), 1 mM EGTA, 0.5 mM dithiothreitol, 1 mM phenylmethylsulphonyl fluoride (PMSF)). The cells were allowed to swell for 5 min on ice prior to homogenization for 30 sec. The homogenates were centrifuged at 40,000 rpm for 45 min at 4° C. The supernatant (S100) was removed and the pellet (P100) was resuspended in HEDG buffer (20 mM HEPES (pH 7.67), 1 mM EGTA, 0.5 mM dithiothreitol, 100 mM NaCl, 10% glycerol, 1 mM PMSF). Protein concentrations were determined using the Bradford assay (Bradford, M. M., 1976, Anal. Biochem. 72: 248–254).
Binding of peptide and/or peptide-coated PLGA particles to membrane (P100) and cytosolic (S100) fractions was assessed by detection of the dansyl moiety incorporated in the peptide. Costar ninety six well ELISA plates were coated with S100 and P100 fractions (100 μg/ml in 0.05 M NaHCO3) overnight at 4° C. The plates were blocked with 0.5% bovine serum albumin in DPBS for 1 h at room temperature and washed 3 times in 1% BSA-DPBS. Peptide-coated particles or peptides were dispersed in the same buffer and added to the plates at concentrations in the range 0.0325–0.5 mg/well. […] The plates were incubated for 1 h at room temperature. The wells were washed 3 times in 1% BSA-DPBS and 100 μl of goat anti-mouse IgGλ:HRP antibody (Southern Biotechnology 1060-05; 1:10,000) was added per well. The plates were incubated for 1 h at room temperature. After washing 3 times in 1% BSA-DPBS 100 μl of TMB substrate (3,3′,5′,5-tetramethylbenzidine; Microwell Peroxidase Substrate System (Kirkegaard and Perry Laboratories 50-76-00)) was added and the optical density was measured at 650 nm at various time intervals.
Binding of dansylated peptides to P100 fractions was assessed to determine if peptide binding was predictive of peptide-coated particle binding.

Data set [5] has as its system fixed Caco-2 cells. The data set is described as follows: Competition ELISA: synthetic peptides versus GST-peptide fusions on fixed Caco-2 cells. Particulars: peptide from 100 μg/ml serially diluted; GST fusion 10 μg. How it is done: Caco-2 cells were fixed, treated with phenylhydrazin and blocked as described above. Synthetic peptides (100 μg/ml) were applied in duplicate to Caco-2 cells and serially diluted down the 96-well plate. The corresponding GST-peptide fusion protein (10 μg) was added to each well and the plates were incubated for 2h at room temperature with agitation. Binding of the GST-peptide fusion proteins to the cells was assayed using the ELISA technique described above.

Data set [6] concerns rat gastro-intestinal tract (closed loop). The data set can be described thus: Transport of preselected phage libraries in rat closed loop, detected by oligonucleotide hybridization/autoradiography. Particulars: hPEPT1 pool; in words.
The target in data set [7] is BSA (Bos taurus, UniProt P02769). The data set can be described thus: Receptor ELISA of phage on BSA (background control protein). Format: binding. Particulars: Table 4; phage panned on hPEPT1. The protocol: 96 well plates were coated overnight with GIT receptor, BSA and, optionally, IDE (insulin degrading enzyme, an irrelevant His-fusion protein)or hTF. The plates were blocked for one hour with 0.5% BSA-PBS. After clarification, the amplified phage were diluted 1:100 in 1% BSA plus 0.05% Tween 20 in PBS and added to the plates. Following incubation of the plates on a rotator for 1 to 2 hours, the plates were washed 5 times with 1% BSA plus 0.05% Tween 20 in PBS. Dilute anti-M13-HRP conjugate (anti-M13 antibody linked to horse radish peroxidase (HRP)) was added to all the wells and the plate was incubated for one hour on a rotator. After the plates were washed 5 times, as described above, TMB substrate was added to the wells. The plates were read at 650 nm absorbance.
BSA, sequence (P02769 25-607): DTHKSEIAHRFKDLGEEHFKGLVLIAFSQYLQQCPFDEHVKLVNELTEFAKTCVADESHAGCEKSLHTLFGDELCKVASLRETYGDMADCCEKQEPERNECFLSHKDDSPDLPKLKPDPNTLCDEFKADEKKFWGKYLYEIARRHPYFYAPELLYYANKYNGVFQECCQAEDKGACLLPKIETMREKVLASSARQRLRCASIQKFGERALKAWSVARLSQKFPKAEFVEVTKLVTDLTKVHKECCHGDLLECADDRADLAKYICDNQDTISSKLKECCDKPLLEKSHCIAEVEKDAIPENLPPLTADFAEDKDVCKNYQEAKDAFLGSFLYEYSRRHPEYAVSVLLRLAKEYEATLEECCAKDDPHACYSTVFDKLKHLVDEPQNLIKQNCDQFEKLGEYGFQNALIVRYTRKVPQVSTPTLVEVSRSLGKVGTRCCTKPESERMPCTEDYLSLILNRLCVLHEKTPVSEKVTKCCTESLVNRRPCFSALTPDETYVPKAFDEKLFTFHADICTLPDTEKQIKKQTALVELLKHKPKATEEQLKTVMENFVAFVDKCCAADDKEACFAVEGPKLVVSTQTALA

Data set [8] in a line: Animal Study 3: intraduodenal open loop leuprolide acetate particles, plasma leuprolide. Format: in vivo, Wistar rats. Particulars: intraduodenal 600 μg vs 12.5 μg subcutaneous. How it is done:
An intraduodenal open loop model study was carried out on Wistar rats (300–350 g). Group 1 was administered leuprolide acetate (12.5 μg) subcutaneously. Group 2 was administered intraduodenally uncoated leuprolide acetate particles (600 μg, 1.5 ml).

Ends that are not written are not given here. * marks the point of attachment. Dansyl = CN(C)c1cccc2c(S(=O)(=O)*)cccc12

Turning to “GST-PAX2-106: GST fusion of truncated peptide derived from PAX2, SEQ ID NO: 188 (TNAKHSSHNRRLRTRSRPN; also: GST fusion)”, the “Value (binding to P100 as ratio of GST-HAX42 binding)” value in data set [1] amounted to 2.71. Also, the “Effect of cleavage with thrombin on detection of binding to fixed Caco-2 cells” value in data set [2] is reported as “significantly reduced”.
Take “H-K(Dansyl)SDHALGTNLRSDNAKEPGDYNCCGNGNSTGRKVFNRRRPSAIPT-NH2 (cysteines drawn unpaired) [ZElan021]”: in data set [3] (20 μg/ml), the “Binding value at 20 μg/ml” value was 1.00. Moreover, the “Binding value at 25 μg/ml” value in data set [3] (first column), in data set [3] (second column) and in data set [3] (third column) was 1.00 throughout. Further, the “Binding value at 50 μg/ml” value in data set [3] (first column) and in data set [3] (second column) was 1.00 in each case. In addition, the “Binding of dansylated peptide to P100 fraction” value in data set [4] (initial assay) is “strong binding”; in data set [4] (repeat assay), “significant binding”. For the same substance, in data set [5], the “Inhibition of GST-HAX42 binding to fixed Caco-2 cells” value is “not inhibited”.
Turning to “SARDSGPAEDGSRAVRLNGVENANTRKSSRSNPRGRRHP (not fully specified) [Peptide P31]”, in data set [6], the “Binding to / presence in the intestine samples” value is “preferential binding”, the “Presence in the portal circulation” value is on record as “found” and the “Presence in the systemic circulation” value is “found in the systemic circulation”. Moreover, the BSA in data set [7] is 0.075 OD. The “Plasma levels of leuprolide relative to subcutaneous injection” value in data set [8] is reported as “enhanced plasma levels of leuprolide”.
